One test concerns KB. The experiment in a line: Cytotoxicity against human KB cells after 72 hrs. In kind it is functional. To be noted: read-out: ED50 (the source's name).
For another test, the system named is Spodoptera frugiperda. Description: Insecticidal activity against Spodoptera frugiperda. It counts as functional.

Structures are written as SMILES. Converted amounts (≈) assume the structure as drawn.

`COc1cc(OC)c(-c2coc3cc(O)ccc3c2=O)cc1OC`: in the test on KB, the EC50 was more than 4 µg/mL. Still for that read-out and setting: for `COc1cc2c(cc1-c1coc3cc(O)ccc3c1=O)OCO2` [CUNEATIN] the value was more than 4 µg/mL. Turning to `COc1cc([C@H]2COc3c(ccc(O)c3OC)C2)c(OC)c(O)c1OC`, in the test with KB, the EC50 stood at 3 µg/mL (≈ 8.28 µM). Further, the LC50 in the test with Spodoptera frugiperda is more than 1000 ng/cm2. As for `COc1ccc2c(c1OC)OC[C@H]1c3cc4c(cc3O[C@@H]21)OCO4`, the EC50 with KB is more than 4 µg/mL.

`CC[C@H](/C=C/[C@@H](C)[C@H]1CC[C@H]2[C@@H]3CC=C4C[C@@H](O)CC[C@]4(C)[C@H]3CC[C@]12C)C(C)C` [STIGMASTEROL]: in the test on KB, the EC50 was more than 4 µg/mL. For `COc1ccc(C2COc3c(ccc(O)c3OC)C2)c(O)c1OC` (stereo not given) [ISODUARTIN], in the test with KB, the EC50 came to 2.63 µg/mL (≈ 7.91 µM). Also, in the test on Spodoptera frugiperda, the LC50 is given as more than 1000 ng/cm2. On to `COc1cc([C@H]2COc3c(ccc(O)c3OC)C2)c(OC)c(OC)c1OC`, for which the EC50 in the test with KB amounted to 3.8 µg/mL (≈ 10.1 µM). In the test on Spodoptera frugiperda, this compound yielded an LC50 of more than 1000 ng/cm2.
